Experimental data as given in patent US11976083B2, “Inhibitors of peptidylarginine deiminases” (Gilead Sciences, Inc., priority 2020, dated 2024).

Biological target: T1, human PAD4 (Homo sapiens, UniProt Q9UM07)
T1 construct: human PAD4 (NM_012387), A2-P663, was PCR amplified; His-SUMO (N, cleaved yes); made in house; host or cells: E. coli BL21(DE3)
Test: In vitro PAD4 BAEE biochemical assay
Conditions: BAEE substrate 3 mM, 5 nM PAD4, 2 mM calcium chloride; geometric mean of multiple experiments
Procedure, shortened: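 Recombinant human PAD4 (5 nM final) with 2 mM CaCl2 was preincubated with compound 30 min at 25 °C in MOPS buffer pH 7.6, then reacted with 3 mM BAEE for 2 h at 25 °C. After EDTA stop, released ammonia was detected by o-phthalaldehyde/DTT fluorescence (ex 405/em 535 nm); IC50 from four-parameter fit, geometric mean.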

T1 sequence (Q9UM07 2-663): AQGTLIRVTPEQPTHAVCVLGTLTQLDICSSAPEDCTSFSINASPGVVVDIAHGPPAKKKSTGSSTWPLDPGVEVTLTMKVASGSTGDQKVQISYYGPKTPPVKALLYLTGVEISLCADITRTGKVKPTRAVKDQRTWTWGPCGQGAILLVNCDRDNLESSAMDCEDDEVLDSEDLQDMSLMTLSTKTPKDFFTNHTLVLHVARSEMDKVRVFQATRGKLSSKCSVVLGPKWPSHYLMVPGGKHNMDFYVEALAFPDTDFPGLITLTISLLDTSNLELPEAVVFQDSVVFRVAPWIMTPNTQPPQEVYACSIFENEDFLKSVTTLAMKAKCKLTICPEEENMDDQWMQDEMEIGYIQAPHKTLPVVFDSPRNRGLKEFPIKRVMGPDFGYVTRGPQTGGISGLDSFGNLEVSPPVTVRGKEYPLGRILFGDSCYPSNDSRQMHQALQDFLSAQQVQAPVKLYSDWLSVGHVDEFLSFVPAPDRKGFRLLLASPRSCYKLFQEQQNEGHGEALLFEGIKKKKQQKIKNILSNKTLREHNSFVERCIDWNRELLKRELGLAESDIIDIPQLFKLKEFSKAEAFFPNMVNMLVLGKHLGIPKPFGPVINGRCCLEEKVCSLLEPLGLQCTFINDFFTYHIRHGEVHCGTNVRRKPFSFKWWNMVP

Row | SMILES | IC50
1 | COc1cc(C(=O)N2C[C@H](N)[C@@H]3CC[C@H]2C3)cc2nc(-c3cc4ccc5nc4n3CC(F)(F)CCC[C@@H]3C[C@H]3C(=O)N[C@@H]5C)n(C3CC3)c12 [Example 766, (2~{R},5~{R},7~{R})-14-[5-[(1~{S},4~{R},5~{R})-4-amino-2-azabicyclo[3.2.1]octane-2-carbonyl]-1-cyclopropyl-7-methoxy-benzimidazol-2-yl]-11,11-difluoro-2-methyl-3,13,19-triazatetracyclo [11.5.2.0^{5,7}.0^{16,20}] icosa-1(19),14,16(20),17-tetraen-4-one] | 28 nM
2 | COc1cc(C(=O)N2C[C@H](N)[C@@H]3CC[C@H]2C3)cc2nc(-c3cc4ccc5nc4n3CCCCC[C@@H]3C[C@H]3C(=O)N[C@@H]5C)n(C3CC3)c12 [Example 767, (2~{R},5~{R},7~{R})-14-[5-[(1~{S},4~{R},5~{R})-4-amino-2-azabicyclo[3.2.1]octane-2-carbonyl]-1-cyclopropyl-7-methoxy-benzimidazol-2-yl]-2-methyl-3,13,19-triazatetracyclo[11.5.2.0^ {5,7}.0^{16,20}]icosa-1(19),14,16(20),17-tetraen-4-one] | 18 nM
3 | COc1cc(C(=O)N2C[C@H](N)[C@@H]3CC[C@H]2C3)cc2nc(-c3cc4ccc5nc4n3CCCCCc3nc(Cl)ccc3C(=O)N[C@@H]5C)c(C3CC3)n12 [Example 768, (2~{R})-17-[7-[(1~{S},4~{R}, 5~{R})-4-amino-2-azabicyclo [3.2.1]octane-2-carbonyl]-3-cyclopropyl-5-methoxy-imidazo[1,2-a]pyridin-2-yl]-8-chloro-2-methyl-3,9,16,22-tetrazatetracyclo[14.5.2.0^ {5,10}.0^{19,23}]tricosa-1(22),5(10),6,8,17,19(23),20-heptaen-4-one] | 59 nM
4 | COc1cc(C(=O)N2C[C@H](N)[C@@H]3CC[C@H]2C3)cc2nc(-c3cc4ccc5nc4n3CC(F)(F)CCC[C@]3(F)C[C@H]3C(=O)N[C@@H]5C)n(C3CC3)c12 [Example 769, (2~{R},5~{S},7~{S})-14-[5-[(1~{S},4~{R},5~{R})-4-amino-2-azabicyclo[3.2.1]octane-2-carbonyl]-1-cyclopropyl-7-methoxy-benzimidazol-2-yl]-7,11,11-trifluoro-2-methyl-3,13,19-triazatetracyclo [11.5.2.0^{5,7}.0^{16,20}] icosa-1(19),14,16(20), 17-tetraen-4-one] | 13 nM
5 | [2H]C1([2H])[C@H](N)[C@@H]2CC[C@@H](C2)N1C(=O)c1cc(OC)c2c(c1)nc(-c1cc3ccc4nc3n1CCCCCc1ccccc1C(=O)N[C@@H]4C)n2C [Example 770, (2~{R})-17-[5-[(1~{S},4~{R}, 5~{R})-4-amino-3,3-dideuterio-2-azabicyclo[3.2.1]octane-2-carbonyl]-7-methoxy-1-methyl-benzimidazol-2-yl]-2-methyl-3,16,22-triazatetracyclo[14.5.2.0^ {5,10).0^{19,23}]tricosa-1(22),5(10),6,8,17,19(23), 20-heptaen-4-one] | 5 nM
6 | COc1cc(C(=O)N2C[C@H](N)[C@@H]3CC[C@H]2C3)cc2nc(-c3cc4ccc5nc4n3CC(F)(F)CCCOC(C)(C)C(=O)N[C@@H]5C)n(C3CC3)c12 [Example 771, (11~{R})-17-[5-[(1~{S),4~{R}, 5~{R})-4-amino-2-azabicyclo [3.2.1]octane-2-carbonyl]-1-cyclopropyl-7-methoxy-benzimidazol-2-yl]-3,3-difluoro-8,8,11-trimethyl-7-oxa-1,10,19-triazatricyclo[10.5.2.0^ {15,18}]nonadeca-12(19),13,15(18),16-tetraen-9-one] | 28 nM
